These results are taken from patent US10227357B2, “Compounds and methods for kinase modulation, and indications therefor” (Plexxikon Inc., priority 2012, dated 2019).

For this assay, the target named is T1, c-kit mutant D816V (Homo sapiens, UniProt P10721, D816V/DEL694-753).
T1 construct: residues 551-934, kinase insertion domain residues 694-753 deleted; 6x-histidine (N); made in house; host or cells: E. coli Arctic Express (DE3) RIL (Stratagene)
T1 sequence (P10721 with tags, fused parts or gaps DEL694-753/D816V): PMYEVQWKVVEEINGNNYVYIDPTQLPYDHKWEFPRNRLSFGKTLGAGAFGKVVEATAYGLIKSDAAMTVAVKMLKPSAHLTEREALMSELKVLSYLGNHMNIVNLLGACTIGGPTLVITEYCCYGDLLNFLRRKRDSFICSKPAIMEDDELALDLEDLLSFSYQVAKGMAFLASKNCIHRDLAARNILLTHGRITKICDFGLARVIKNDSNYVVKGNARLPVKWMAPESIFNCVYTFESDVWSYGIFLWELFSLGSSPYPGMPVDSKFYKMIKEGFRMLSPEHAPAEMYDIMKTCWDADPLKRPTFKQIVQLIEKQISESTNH
Kind of assay: c-Kit mutant D816V biochemical assay, AlphaScreen. The note with it: c-kit D816V biochemical inhibitory activity; read-out: Biochemical activity (IC50 μM) Kit D816V. In short, it runs like this: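 Purified His-tagged c-Kit D816V (E. coli-expressed) assayed in 25 mM HEPES pH 7.2 with Mg/Mn, 5% DMSO and 10 μM ATP, 30 min at room temperature, 8-point 1:3 dilutions. Phosphorylation detected by AlphaScreen with streptavidin donor and PY20 acceptor beads; IC50 from signal versus concentration.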
As for `CC1(C)C=C(c2cc3c(N4CCC(NS(=O)(=O)c5ccc(OC(F)(F)F)cc5)CC4)ncnc3[nH]2)CC(C)(C)O1` [P-0663, N-[1-[6-(2,2,6,6-tetramethyl-3H-pyran-4-yl)-7H-pyrrolo[2,3-d]pyrimidin-4-yl]-4-piperidyl]-4-(trifluoromethoxy)benzenesulfonamide], the half-maximal inhibitory concentration (IC50) was in the range of 10 to 200 µM.

With `COc1cc(-c2cc3c(N4CCC(NS(=O)(=O)c5ccc(Cl)cc5)CC4)ncnc3[nH]2)ccn1` [P-0666, 4-chloro-N-[1-[6-(2-methoxy-4-pyridyl)-7H-pyrrolo[2,3-d]pyrimidin-4-yl]-4-piperidyl]benzenesulfonamide], the half-inhibitory concentration (IC50) fell in the range of 0.0001 to 1 µM.

Turning to `C[C@H](NC(=O)N1CCN(c2ncnc3ccsc23)CC1(C)C)c1cccc(Cl)c1` [P-0677, N-[(1S)-1-(3-chlorophenyl)ethyl]-2,2-dimethyl-4-thieno[3,2-d]pyrimidin-4-yl-piperazine-1-carboxamide], the IC50 lay in the range of 1 to 10 µM.

Consider `CC(C)(NC(=O)N1CCN(c2ncnc3cc(-c4ccc(F)cc4)sc23)CC1(C)C)c1ccccc1` [P-0678, 4-[6-(4-fluorophenyl)thieno[3,2-d]pyrimidin-4-yl]-2,2-dimethyl-N-(1-methyl-1-phenyl-ethyl)piperazine-1-carboxamide], for which the IC50 was in the range of 1 to 10 µM.

Turning to `C[C@H](NC(=O)N1CCN(c2ncnc3[nH]c(-c4ccc(C#N)cc4)cc23)CC1(C)C)c1ccc(F)cc1` [P-0685, 4-[6-(4-cyanophenyl)-7H-pyrrolo[2,3-d]pyrimidin-4-yl]-N-[(1S)-1-(4-fluorophenyl)ethyl]-2,2-dimethyl-piperazine-1-carboxamide], the IC50 is 1 to 10 µM.

In the case of `C[C@H](NC(=O)N1CCN(c2ncnc3[nH]c(-c4ccc(C#N)cc4)cc23)CC1(C)C)c1ccc(Cl)cc1` [P-0686, N-[(1S)-1-(4-chlorophenyl)ethyl]-4-[6-(4-cyanophenyl)-7H-pyrrolo[2,3-d]pyrimidin-4-yl]-2,2-dimethyl-piperazine-1-carboxamide], the IC50 was in the range of 10 to 200 µM.

Consider `C[C@H](NC(=O)N1CCN(c2ncnc3[nH]c(-c4ccc(C#N)cc4)cc23)C[C@H]1C)c1cccc(F)c1` [P-0693, (2R)-4-[6-(4-cyanophenyl)-7H-pyrrolo[2,3-d]pyrimidin-4-yl]-N-[(1S)-1-(3-fluorophenyl)ethyl]-2-methyl-piperazine-1-carboxamide], for which the IC50 fell in the range of 0.0001 to 1 µM.

For `C[C@H](NC(=O)N1CCN(c2ncnc3[nH]c(-c4ccc(C#N)cc4)cc23)CC1)c1ccc(F)cc1` [P-0696, 4-[6-(4-cyanophenyl)-7H-pyrrolo[2,3-d]pyrimidin-4-yl]-N-[(1S)-1-(4-fluorophenyl)ethyl]piperazine-1-carboxamide], the IC50 lay in the range of 0.0001 to 1 µM.

For the compound `C[C@H](NC(=O)N1CCN(c2ncnc3[nH]c(-c4ccc(C#N)cc4)cc23)CC1(C)C)c1cccc(OC(F)F)c1` [P-0698, 4-[6-(4-cyanophenyl)-7H-pyrrolo[2,3-d]pyrimidin-4-yl]-N-[(1S)-1-[3-(difluoromethoxy)phenyl]ethyl]-2,2-dimethyl-piperazine-1-carboxamide], the half-inhibitory concentration (IC50) lay within 0.0001 to 1 µM.

On to `C[C@H](NC(=O)N1CCN(c2ncnc3[nH]c(-c4ccc(C#N)cc4)cc23)C[C@H]1C)c1cccc(OC(F)F)c1` [P-0699, (2R)-4-[6-(4-cyanophenyl)-7H-pyrrolo[2,3-d]pyrimidin-4-yl]-N-[(1S)-1-[3-(difluoromethoxy)phenyl]ethyl]-2-methyl-piperazine-1-carboxamide], for which the half-inhibitory concentration (IC50) is 0.0001 to 1 µM.

Regarding `C[C@H](NC(=O)N1CCN(c2ncnc3[nH]c(-c4ccc(F)cc4)cc23)C[C@H]1C)c1cccc(Cl)c1` [P-0701, (2R)-N-[(1S)-1-(3-chlorophenyl)ethyl]-4-[6-(4-fluorophenyl)-7H-pyrrolo[2,3-d]pyrimidin-4-yl]-2-methyl-piperazine-1-carboxamide], the IC50 was 0.0001 to 1 µM.

Consider `C[C@H](NC(=O)N1CCN(c2ncnc3[nH]c(-c4ccc(C#N)cc4)cc23)CC1)c1ccc(Cl)cc1` [P-0702, N-[(1S)-1-(4-chlorophenyl)ethyl]-4-[6-(4-cyanophenyl)-7H-pyrrolo[2,3-d]pyrimidin-4-yl]piperazine-1-carboxamide], for which the 50% inhibitory concentration (IC50) is 0.0001 to 1 µM.

As for `Cc1ccc(C(C)NC(=O)N2CCN(c3ncnc4cc(-c5ccc(F)cc5)sc34)CC2)s1` (stereo not shown) [P-0703, 4-[6-(4-fluorophenyl)thieno[3,2-d]pyrimidin-4-yl]-N-[1-(5-methyl-2-thienyl)ethyl]piperazine-1-carboxamide], the IC50 is 0.0001 to 1 µM.

As to `Cc1nn(C)cc1-c1cc2ncnc(N3CC4CCC3CN4C(=O)N[C@H](C)c3ccc(F)cc3)c2s1` (stereo partly drawn) [P-0704, 5-[6-(1,3-dimethylpyrazol-4-yl)thieno[3,2-d]pyrimidin-4-yl]-N-[(1R)-1-(4-fluorophenyl)ethyl]-2,5-diazabicyclo[2.2.2]octane-2-carboxamide], the IC50 was in the range of 0.0001 to 1 µM.

Take `COc1cc(-c2cc3c(N4CCN(C(=O)N[C@@H](C)c5cccc(Cl)c5)[C@H](C)C4)ncnc3[nH]2)ccn1` [P-0711, (2R)-N-[(1S)-1-(3-chlorophenyl)ethyl]-4-[6-(2-methoxy-4-pyridyl)-7H-pyrrolo[2,3-d]pyrimidin-4-yl]-2-methyl-piperazine-1-carboxamide]: the IC50 was 0.0001 to 1 µM.

On to `Cc1ccc([C@H](C)NC(=O)N2CCN(c3ncnc4[nH]c(-c5ccc(F)cc5)cc34)CC2)cc1` [P-0713, 4-[6-(4-fluorophenyl)-7H-pyrrolo[2,3-d]pyrimidin-4-yl]-N-[(1S)-1-(p-tolyl)ethyl]piperazine-1-carboxamide], for which the IC50 fell in the range of 0.0001 to 1 µM.

By IC50 is commonly meant the concentration needed to halve the response being measured.
